Key:
[1] = test system: MCAo-induced brain infarction; assay: MCAo ischemic stroke: brain infarct volume (TTC); type: in vivo, rat; conditions: 3-MP 10.58 and 21.17 mg/kg I.P. (doses combined), 48 h
[2] = test system: plasma TNF-α, IL-1β, IL-6, IL-10 in MCAo-challenged rats; assay: MCAo ischemic stroke: plasma cytokines at 48 h; type: in vivo; conditions: rat MCAo, 3-MP I.P., plasma at 48 h
SERT transporter = SERT transporter (Homo sapiens, UniProt P31645); assay: PDSP radioligand binding; conditions: read-out: 3-MP concentration required to induce 50% inhibition of PDSP radioligand binding
Procedure: (§1) To evaluate potential binding at classical neurological drug targets, 3-MP and 3,6’-DP were submitted to the National Institute on Mental Health (NIMH) Psychoactive Drug Screening Program (PDSP: Univ. N Carolina, Chapel Hill, NC, USA < https://pdspdb.unc.edu/pdspweb/ >) as powdered samples in the provided vials. The materials were then prepared at the PDSP in 10% DMSO, subjected to multiple assay screens, and processed as per the PDSP Assay Protocol Book (Version 3, March 2018). Compounds that exceeded an initial 10 uM binding threshold were then delegated for secondary dose–response analysis. This screen comprised a 45-target comprehensive panel of common brain receptor and transporter drug targets.

[3] = biological target: Benzodiazepine BZP receptor; assay: PDSP radioligand binding; conditions: read-out: 3-MP concentration required to induce 50% inhibition of PDSP radioligand binding
Procedure: as §1

δ-opioid receptor = δ-opioid receptor (Homo sapiens, UniProt P41143); assay: PDSP radioligand binding; conditions: read-out: 3-MP concentration required to induce 50% inhibition of PDSP radioligand binding
Procedure: as §1

[4] = biological target: T1, Benzodiazepine PBR receptor (Rattus norvegicus, UniProt P16257); assay: PDSP radioligand binding; conditions: read-out: 3-MP concentration required to induce 50% inhibition of PDSP radioligand binding
T1 construct: NIMH Psychoactive Drug Screening Program (PDSP)
Procedure: as §1

Muscarinic M5 receptor = Muscarinic M5 receptor (Homo sapiens, UniProt P08912); assay: PDSP radioligand binding; conditions: read-out: 3-MP concentration required to induce 50% inhibition of PDSP radioligand binding
Procedure: as §1

Muscarinic M3 receptor = Muscarinic M3 receptor (Homo sapiens, UniProt P20309); assay: PDSP radioligand binding; conditions: read-out: 3-MP concentration required to induce 50% inhibition of PDSP radioligand binding
Procedure: as §1

[5] = biological target: T2, Serotonin 5-HT1B receptor (Homo sapiens, UniProt P28222); assay: PDSP radioligand binding; conditions: read-out: 3-MP concentration required to induce 50% inhibition of PDSP radioligand binding
T2 construct: NIMH Psychoactive Drug Screening Program (PDSP)
Procedure: as §1

Dopamine D3 receptor = Dopamine D3 receptor (Homo sapiens, UniProt P35462); assay: PDSP radioligand binding; conditions: read-out: 3-MP concentration required to induce 50% inhibition of PDSP radioligand binding
Procedure: as §1

Muscarinic M4 receptor = Muscarinic M4 receptor (Homo sapiens, UniProt P08173); assay: PDSP radioligand binding; conditions: read-out: 3-MP concentration required to induce 50% inhibition of PDSP radioligand binding
Procedure: as §1

Muscarinic M2 receptor = Muscarinic M2 receptor (Homo sapiens, UniProt P08172); assay: PDSP radioligand binding; conditions: read-out: 3-MP concentration required to induce 50% inhibition of PDSP radioligand binding
Procedure: as §1

Histamine H4 receptor = Histamine H4 receptor (Homo sapiens, UniProt Q9H3N8); assay: PDSP radioligand binding; conditions: read-out: 3-MP concentration required to induce 50% inhibition of PDSP radioligand binding
Procedure: as §1

[6] = biological target: T3, Serotonin 5-HT1E receptor (Homo sapiens, UniProt P28566); assay: PDSP radioligand binding; conditions: read-out: 3-MP concentration required to induce 50% inhibition of PDSP radioligand binding
T3 construct: NIMH Psychoactive Drug Screening Program (PDSP)
Procedure: as §1

[7] = biological target: T4, Adrenergic Alpha2A receptor (Homo sapiens, UniProt P08913); assay: PDSP radioligand binding; conditions: read-out: 3-MP concentration required to induce 50% inhibition of PDSP radioligand binding
T4 construct: NIMH Psychoactive Drug Screening Program (PDSP)
Procedure: as §1

[8] = biological target: T5, Adrenergic Alpha1D receptor (Homo sapiens, UniProt P25100); assay: PDSP radioligand binding; conditions: read-out: 3-MP concentration required to induce 50% inhibition of PDSP radioligand binding
T5 construct: NIMH Psychoactive Drug Screening Program (PDSP)
Procedure: as §1

[9] = biological target: T6, Serotonin 5-HT2C receptor (Homo sapiens, UniProt P28335); assay: PDSP radioligand binding; conditions: read-out: 3-MP concentration required to induce 50% inhibition of PDSP radioligand binding
T6 construct: NIMH Psychoactive Drug Screening Program (PDSP)
Procedure: as §1

κ-opioid receptor = κ-opioid receptor (Homo sapiens, UniProt P41145); assay: PDSP radioligand binding; conditions: read-out: 3-MP concentration required to induce 50% inhibition of PDSP radioligand binding
Procedure: as §1

μ-opioid receptor = μ-opioid receptor (Homo sapiens, UniProt P35372); assay: PDSP radioligand binding; conditions: read-out: 3-MP concentration required to induce 50% inhibition of PDSP radioligand binding
Procedure: as §1

Muscarinic M1 receptor = Muscarinic M1 receptor (Homo sapiens, UniProt P11229); assay: PDSP radioligand binding; conditions: read-out: 3-MP concentration required to induce 50% inhibition of PDSP radioligand binding
Procedure: as §1

NET transporter = NET transporter (Homo sapiens, UniProt P23975); assay: PDSP radioligand binding; conditions: read-out: 3-MP concentration required to induce 50% inhibition of PDSP radioligand binding
Procedure: as §1

Serotonin 5-HT3 receptor = biological target: T7, Serotonin 5-HT3 receptor (Homo sapiens, UniProt P46098); assay: PDSP radioligand binding; conditions: read-out: 3-MP concentration required to induce 50% inhibition of PDSP radioligand binding
T7 construct: NIMH Psychoactive Drug Screening Program (PDSP)
Procedure: as §1

[10] = biological target: T8, Adrenergic Alpha2C receptor (Homo sapiens, UniProt P18825); assay: PDSP radioligand binding; conditions: read-out: 3-MP concentration required to induce 50% inhibition of PDSP radioligand binding
T8 construct: NIMH Psychoactive Drug Screening Program (PDSP)
Procedure: as §1

Dopamine D4 receptor = Dopamine D4 receptor (Homo sapiens, UniProt P21917); assay: PDSP radioligand binding; conditions: read-out: 3-MP concentration required to induce 50% inhibition of PDSP radioligand binding
Procedure: as §1

[11] = biological target: T9, Serotonin 5-HT1D receptor (Homo sapiens, UniProt P28221); assay: PDSP radioligand binding; conditions: read-out: 3-MP concentration required to induce 50% inhibition of PDSP radioligand binding
T9 construct: NIMH Psychoactive Drug Screening Program (PDSP)
Procedure: as §1

[12] = biological target: T10, Serotonin 5-HT5A receptor (Homo sapiens, UniProt P47898); assay: PDSP radioligand binding; conditions: read-out: 3-MP concentration required to induce 50% inhibition of PDSP radioligand binding
T10 construct: NIMH Psychoactive Drug Screening Program (PDSP)
Procedure: as §1

[13] = biological target: T11, Serotonin 5-HT2B receptor (Homo sapiens, UniProt P41595); assay: PDSP radioligand binding; conditions: read-out: 3-MP concentration required to induce 50% inhibition of PDSP radioligand binding
T11 construct: NIMH Psychoactive Drug Screening Program (PDSP)
Procedure: as §1

[14] = biological target: T12, Adrenergic Beta1 receptor (Homo sapiens, UniProt P08588); assay: PDSP radioligand binding; conditions: read-out: 3-MP concentration required to induce 50% inhibition of PDSP radioligand binding
T12 construct: NIMH Psychoactive Drug Screening Program (PDSP)
Procedure: as §1

Serotonin 5-HT6 receptor = biological target: T13, Serotonin 5-HT6 receptor (Homo sapiens, UniProt P50406); assay: PDSP radioligand binding; conditions: read-out: 3-MP concentration required to induce 50% inhibition of PDSP radioligand binding
T13 construct: NIMH Psychoactive Drug Screening Program (PDSP)
Procedure: as §1

Dopamine D5 receptor = Dopamine D5 receptor (Homo sapiens, UniProt P21918); assay: PDSP radioligand binding; conditions: read-out: 3-MP concentration required to induce 50% inhibition of PDSP radioligand binding
Procedure: as §1

DAT transporter = DAT transporter (Homo sapiens, UniProt Q01959); assay: PDSP radioligand binding; conditions: read-out: 3-MP concentration required to induce 50% inhibition of PDSP radioligand binding
Procedure: as §1

[15] = biological target: T14, Serotonin 5-HT1A receptor (Homo sapiens, UniProt P08908); assay: PDSP radioligand binding; conditions: read-out: 3-MP concentration required to induce 50% inhibition of PDSP radioligand binding
T14 construct: NIMH Psychoactive Drug Screening Program (PDSP)
Procedure: as §1

[16] = biological target: T15, Adrenergic Alpha1A receptor (Homo sapiens, UniProt P35348); assay: PDSP radioligand binding; conditions: read-out: 3-MP concentration required to induce 50% inhibition of PDSP radioligand binding
T15 construct: NIMH Psychoactive Drug Screening Program (PDSP)
Procedure: as §1

Histamine H1 receptor = Histamine H1 receptor (Homo sapiens, UniProt P35367); assay: PDSP radioligand binding; conditions: read-out: 3-MP concentration required to induce 50% inhibition of PDSP radioligand binding
Procedure: as §1

Dopamine D2 receptor = biological target: T16, Dopamine D2 receptor (Homo sapiens, UniProt P14416); assay: PDSP radioligand binding; conditions: read-out: 3-MP concentration required to induce 50% inhibition of PDSP radioligand binding
T16 construct: NIMH Psychoactive Drug Screening Program (PDSP)
Procedure: as §1

Sigma 2 receptor = Sigma 2 receptor (Rattus norvegicus, UniProt Q5U3Y7); assay: PDSP radioligand binding; conditions: read-out: 3-MP concentration required to induce 50% inhibition of PDSP radioligand binding
Procedure: as §1

[17] = biological target: T17, Adrenergic Alpha1B receptor (Homo sapiens, UniProt P35368); assay: PDSP radioligand binding; conditions: read-out: 3-MP concentration required to induce 50% inhibition of PDSP radioligand binding
T17 construct: NIMH Psychoactive Drug Screening Program (PDSP)
Procedure: as §1

DAT transporter, sequence (Q01959 whole entry): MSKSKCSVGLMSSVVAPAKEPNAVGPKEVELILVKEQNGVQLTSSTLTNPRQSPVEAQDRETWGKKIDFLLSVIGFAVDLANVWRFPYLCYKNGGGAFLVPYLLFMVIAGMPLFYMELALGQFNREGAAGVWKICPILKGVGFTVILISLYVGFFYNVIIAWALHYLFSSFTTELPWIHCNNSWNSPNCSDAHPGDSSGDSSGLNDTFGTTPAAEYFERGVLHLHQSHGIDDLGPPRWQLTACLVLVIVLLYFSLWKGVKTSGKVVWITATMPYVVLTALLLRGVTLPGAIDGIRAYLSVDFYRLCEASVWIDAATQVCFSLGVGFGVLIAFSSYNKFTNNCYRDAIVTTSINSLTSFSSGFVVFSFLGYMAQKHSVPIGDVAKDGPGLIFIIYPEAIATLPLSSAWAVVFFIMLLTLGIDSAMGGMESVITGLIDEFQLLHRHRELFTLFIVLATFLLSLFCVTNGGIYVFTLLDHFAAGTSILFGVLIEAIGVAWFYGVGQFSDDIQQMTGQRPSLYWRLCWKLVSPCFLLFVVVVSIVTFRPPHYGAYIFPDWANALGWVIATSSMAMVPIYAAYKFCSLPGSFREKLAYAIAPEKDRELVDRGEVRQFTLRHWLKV
T7 sequence (P46098 24-478): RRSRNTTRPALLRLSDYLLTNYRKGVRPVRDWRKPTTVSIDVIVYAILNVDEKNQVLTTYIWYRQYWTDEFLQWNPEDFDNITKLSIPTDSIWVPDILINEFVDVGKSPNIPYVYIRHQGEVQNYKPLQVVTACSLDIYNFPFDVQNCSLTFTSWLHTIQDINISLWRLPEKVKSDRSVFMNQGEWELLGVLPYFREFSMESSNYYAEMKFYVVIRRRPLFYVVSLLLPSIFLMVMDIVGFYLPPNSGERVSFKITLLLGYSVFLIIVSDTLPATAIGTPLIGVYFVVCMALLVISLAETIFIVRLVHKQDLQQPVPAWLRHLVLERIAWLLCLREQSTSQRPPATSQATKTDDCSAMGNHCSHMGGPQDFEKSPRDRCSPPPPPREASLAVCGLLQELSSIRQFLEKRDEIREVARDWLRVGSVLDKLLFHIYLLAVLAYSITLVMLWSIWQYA
Muscarinic M1 receptor, sequence (P11229 whole entry): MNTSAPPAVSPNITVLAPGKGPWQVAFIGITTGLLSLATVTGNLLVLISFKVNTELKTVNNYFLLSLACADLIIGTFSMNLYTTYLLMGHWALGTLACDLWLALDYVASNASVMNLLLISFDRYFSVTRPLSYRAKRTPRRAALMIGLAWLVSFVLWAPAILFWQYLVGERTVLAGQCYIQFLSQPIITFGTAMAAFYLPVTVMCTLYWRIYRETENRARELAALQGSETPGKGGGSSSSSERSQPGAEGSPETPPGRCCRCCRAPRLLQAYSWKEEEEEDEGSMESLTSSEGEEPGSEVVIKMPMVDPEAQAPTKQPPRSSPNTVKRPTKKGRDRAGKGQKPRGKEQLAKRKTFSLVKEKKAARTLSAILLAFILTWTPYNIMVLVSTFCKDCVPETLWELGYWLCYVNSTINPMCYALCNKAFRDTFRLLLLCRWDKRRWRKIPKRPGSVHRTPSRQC
Dopamine D5 receptor, sequence (P21918 whole entry): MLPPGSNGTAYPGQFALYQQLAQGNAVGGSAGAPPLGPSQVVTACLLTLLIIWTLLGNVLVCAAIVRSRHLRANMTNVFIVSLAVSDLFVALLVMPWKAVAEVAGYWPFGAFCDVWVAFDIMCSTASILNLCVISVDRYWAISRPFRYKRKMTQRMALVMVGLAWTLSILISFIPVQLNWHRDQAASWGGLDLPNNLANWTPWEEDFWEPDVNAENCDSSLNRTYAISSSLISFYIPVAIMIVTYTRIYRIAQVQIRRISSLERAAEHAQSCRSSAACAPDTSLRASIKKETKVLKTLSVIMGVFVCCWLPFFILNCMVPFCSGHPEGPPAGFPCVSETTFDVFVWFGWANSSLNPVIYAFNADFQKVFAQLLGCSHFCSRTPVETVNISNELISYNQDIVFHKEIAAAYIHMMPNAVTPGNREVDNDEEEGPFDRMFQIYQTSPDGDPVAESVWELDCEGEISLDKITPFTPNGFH
T2 sequence (P28222 whole entry): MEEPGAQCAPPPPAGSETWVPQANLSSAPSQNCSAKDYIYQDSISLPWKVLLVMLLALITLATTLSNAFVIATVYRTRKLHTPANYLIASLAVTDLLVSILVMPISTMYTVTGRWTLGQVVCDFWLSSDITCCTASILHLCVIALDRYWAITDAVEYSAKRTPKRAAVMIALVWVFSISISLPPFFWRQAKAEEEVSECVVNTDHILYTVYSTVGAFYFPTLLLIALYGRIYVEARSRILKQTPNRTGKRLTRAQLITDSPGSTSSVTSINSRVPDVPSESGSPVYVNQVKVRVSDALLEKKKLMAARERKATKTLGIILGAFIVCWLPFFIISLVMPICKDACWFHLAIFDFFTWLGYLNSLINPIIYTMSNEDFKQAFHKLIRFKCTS
Dopamine D3 receptor, sequence (P35462 whole entry): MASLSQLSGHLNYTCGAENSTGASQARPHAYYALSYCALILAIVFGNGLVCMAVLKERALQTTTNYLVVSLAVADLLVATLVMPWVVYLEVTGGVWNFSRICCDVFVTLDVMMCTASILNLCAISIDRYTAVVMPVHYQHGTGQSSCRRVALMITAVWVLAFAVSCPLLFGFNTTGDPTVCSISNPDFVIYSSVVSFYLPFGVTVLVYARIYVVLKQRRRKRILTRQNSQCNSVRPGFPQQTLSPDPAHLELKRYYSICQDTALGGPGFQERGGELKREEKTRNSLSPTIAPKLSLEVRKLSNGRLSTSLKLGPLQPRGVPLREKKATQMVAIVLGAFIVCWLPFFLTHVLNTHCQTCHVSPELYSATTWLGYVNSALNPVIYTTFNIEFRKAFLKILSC
T9 sequence (P28221 whole entry): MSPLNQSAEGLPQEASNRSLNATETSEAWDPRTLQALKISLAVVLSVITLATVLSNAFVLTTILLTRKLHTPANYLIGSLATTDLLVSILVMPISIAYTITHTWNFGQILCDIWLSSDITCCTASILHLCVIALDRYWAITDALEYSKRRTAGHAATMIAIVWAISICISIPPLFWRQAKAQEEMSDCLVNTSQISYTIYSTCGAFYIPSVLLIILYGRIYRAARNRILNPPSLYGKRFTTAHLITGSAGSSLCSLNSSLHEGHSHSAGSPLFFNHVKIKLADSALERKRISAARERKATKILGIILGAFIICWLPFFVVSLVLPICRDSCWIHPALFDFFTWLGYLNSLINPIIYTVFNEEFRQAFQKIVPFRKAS
Histamine H1 receptor, sequence (P35367 whole entry): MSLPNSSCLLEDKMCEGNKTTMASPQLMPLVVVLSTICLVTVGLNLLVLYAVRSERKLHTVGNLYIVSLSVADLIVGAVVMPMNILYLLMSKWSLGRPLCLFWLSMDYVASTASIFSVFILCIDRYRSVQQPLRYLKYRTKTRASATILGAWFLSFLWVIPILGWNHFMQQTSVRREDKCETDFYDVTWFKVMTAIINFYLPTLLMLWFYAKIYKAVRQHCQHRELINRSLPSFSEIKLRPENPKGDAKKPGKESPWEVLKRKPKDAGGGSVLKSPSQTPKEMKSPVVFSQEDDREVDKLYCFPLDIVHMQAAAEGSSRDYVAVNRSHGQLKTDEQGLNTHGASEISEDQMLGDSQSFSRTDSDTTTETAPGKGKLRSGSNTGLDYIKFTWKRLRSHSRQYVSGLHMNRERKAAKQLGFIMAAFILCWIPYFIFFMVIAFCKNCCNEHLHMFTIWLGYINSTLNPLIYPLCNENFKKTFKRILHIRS
T10 sequence (P47898 whole entry): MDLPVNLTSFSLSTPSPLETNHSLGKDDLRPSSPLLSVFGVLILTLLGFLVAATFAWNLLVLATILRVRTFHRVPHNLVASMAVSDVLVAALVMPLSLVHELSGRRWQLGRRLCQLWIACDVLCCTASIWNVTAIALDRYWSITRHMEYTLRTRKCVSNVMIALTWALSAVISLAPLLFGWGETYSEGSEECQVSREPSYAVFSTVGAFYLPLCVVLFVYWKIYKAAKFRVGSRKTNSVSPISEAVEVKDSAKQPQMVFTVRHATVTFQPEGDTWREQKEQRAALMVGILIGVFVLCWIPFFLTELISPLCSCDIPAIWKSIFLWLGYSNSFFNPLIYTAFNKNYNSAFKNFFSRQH
T17 sequence (P35368 whole entry): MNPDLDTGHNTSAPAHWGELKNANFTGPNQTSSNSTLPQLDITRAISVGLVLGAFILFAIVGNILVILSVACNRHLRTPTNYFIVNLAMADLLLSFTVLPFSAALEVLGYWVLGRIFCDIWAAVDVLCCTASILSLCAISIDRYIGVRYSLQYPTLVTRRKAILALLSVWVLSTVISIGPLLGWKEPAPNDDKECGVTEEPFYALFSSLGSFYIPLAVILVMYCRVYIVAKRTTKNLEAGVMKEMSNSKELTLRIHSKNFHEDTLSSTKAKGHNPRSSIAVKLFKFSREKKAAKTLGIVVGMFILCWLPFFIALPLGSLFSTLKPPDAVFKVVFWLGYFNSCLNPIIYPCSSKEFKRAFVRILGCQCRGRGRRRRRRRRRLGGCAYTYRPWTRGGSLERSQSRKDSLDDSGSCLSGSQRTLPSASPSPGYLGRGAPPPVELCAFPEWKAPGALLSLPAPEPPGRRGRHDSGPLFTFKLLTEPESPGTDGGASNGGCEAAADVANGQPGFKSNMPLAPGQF
μ-opioid receptor, sequence (P35372 whole entry): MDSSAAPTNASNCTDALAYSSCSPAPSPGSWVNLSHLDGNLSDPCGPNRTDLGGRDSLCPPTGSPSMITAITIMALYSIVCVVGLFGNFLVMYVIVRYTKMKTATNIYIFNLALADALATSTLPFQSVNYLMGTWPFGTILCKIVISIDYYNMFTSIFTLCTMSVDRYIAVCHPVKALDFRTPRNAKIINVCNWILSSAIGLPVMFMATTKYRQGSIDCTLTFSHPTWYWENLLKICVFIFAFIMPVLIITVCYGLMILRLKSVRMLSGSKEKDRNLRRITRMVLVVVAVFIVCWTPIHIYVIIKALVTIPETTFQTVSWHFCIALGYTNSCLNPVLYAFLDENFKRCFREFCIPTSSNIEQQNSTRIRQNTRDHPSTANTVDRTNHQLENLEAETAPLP

Nc1cccc2c1C(=S)N(C1CCC(=O)NC1=O)C2=O (centres unmarked) [3-MP, 3-Monothiopomalidomide]
infarct volume ([1]; rat MCAo 60 min + reperfusion, TTC): 4.32 ± 1.33%
reduction of infarct volume versus MCAo + vehicle ([1]; rat MCAo): 56%
MCAo-induced elevation in plasma IL-1β [2]: significantly mitigated
MCAo-induced elevation in plasma IL-6 [2]: significantly mitigated
MCAo-induced elevation in plasma TNF-α [2]: significantly mitigated
plasma anti-inflammatory IL-10 levels [2]: rise
IC50 (SERT transporter): > 10 µM
IC50 [3]: > 10 µM
IC50 (δ-opioid receptor): > 10 µM
IC50 [4]: > 10 µM
IC50 (Muscarinic M5 receptor): > 10 µM
IC50 (Muscarinic M3 receptor): > 10 µM
IC50 [5]: > 10 µM
IC50 (Dopamine D3 receptor): > 10 µM
IC50 (Muscarinic M4 receptor): > 10 µM
IC50 (Muscarinic M2 receptor): > 10 µM
IC50 (Histamine H4 receptor): > 10 µM
IC50 [6]: > 10 µM
IC50 [7]: > 10 µM
IC50 [8]: > 10 µM
IC50 [9]: > 10 µM
IC50 (κ-opioid receptor): > 10 µM
IC50 (μ-opioid receptor): > 10 µM
IC50 (Muscarinic M1 receptor): > 10 µM
IC50 (NET transporter): > 10 µM
IC50 (Serotonin 5-HT3 receptor): > 10 µM
IC50 [10]: > 10 µM
IC50 (Dopamine D4 receptor): > 10 µM
IC50 [11]: > 10 µM
IC50 [12]: > 10 µM
IC50 [13]: > 10 µM
IC50 [14]: > 10 µM
IC50 (Serotonin 5-HT6 receptor): > 10 µM
IC50 (Dopamine D5 receptor): > 10 µM
IC50 (DAT transporter): > 10 µM
IC50 [15]: > 10 µM
IC50 [16]: > 10 µM
IC50 (Histamine H1 receptor): > 10 µM
IC50 (Dopamine D2 receptor): > 10 µM
IC50 (Sigma 2 receptor): > 10 µM
IC50 [17]: > 10 µM

Source: article PMC12397098, “3-Monothiopomalidomide, a new immunomodulatory imide drug (IMiD), blunts inflammation and mitigates ischemic stroke in the rat” (GeroScience, 2025)
